Measured values as given in PMC9298352, “Design, Synthesis and Structural Analysis of Glucocerebrosidase Imaging Agents” (Chemistry (Weinheim an Der Bergstrasse, Germany), 2021).
Where a chain is given by its changes, count along the chain named. Read-outs that look alike come from different tables or passages of the source.

Columns and labels:
Type in all cases: biochemical
rhGBA = target: T1, rhGBA (Homo sapiens, UniProt P04062); test: Titration of ABP 6 and ABP 9 with constant rhGBA (gel-based labelling); conditions: constant rhGBA 200 nM, ABP 150–0.001 nM, 37 °C, 30 mins
T1 construct: made in house; host or cells: insect-baculovirus expression vector system (BEVS)
T1 sequence (P04062 40-536): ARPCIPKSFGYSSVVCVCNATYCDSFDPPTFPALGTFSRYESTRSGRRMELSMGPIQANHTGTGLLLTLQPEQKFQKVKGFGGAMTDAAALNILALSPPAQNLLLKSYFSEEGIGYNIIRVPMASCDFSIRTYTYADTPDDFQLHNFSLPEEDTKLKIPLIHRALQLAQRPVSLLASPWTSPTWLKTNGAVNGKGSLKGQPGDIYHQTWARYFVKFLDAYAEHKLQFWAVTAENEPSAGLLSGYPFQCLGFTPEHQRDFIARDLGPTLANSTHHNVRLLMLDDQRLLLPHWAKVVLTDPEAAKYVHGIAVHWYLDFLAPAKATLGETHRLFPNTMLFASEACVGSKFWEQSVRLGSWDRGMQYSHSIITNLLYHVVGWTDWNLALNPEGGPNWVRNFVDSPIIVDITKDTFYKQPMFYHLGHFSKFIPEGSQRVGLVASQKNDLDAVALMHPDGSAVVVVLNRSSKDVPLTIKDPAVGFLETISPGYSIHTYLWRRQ
Experimental: Maximum‐likelihood/σA weighted (2Fo–Fc) electron density map contoured to 1.0 σ (a=1.31 e^−/Å^3). […] Fluorescently labelled rhGBA visualized by Cy5 fluorescent readout. D=denatured protein sample.
The reactions were incubated at 37 °C for 30 mins and denatured with Laemmli (x3) sample buffer at 95 °C for 5 minutes. The samples were resolved by electrophoresis in 10 % SDS‐PAGE gels, running at 200 V for ∼50 minutes. Wet slab gels were scanned on fluorescence using an Amersham Typhoon 5 Imager (GE Healthcare) with λEX 635 nm; λEM >665 nm.

[1] = target: T2, recombinant human GBA (rhGBA, Imiglucerase) (Homo sapiens, UniProt P04062, R534H); test: In vitro apparent IC50, fluorogenic substrate assay on rhGBA
T2 construct: purchased Sanofi Genzyme (Cambridge, MA, USA)
T2 sequence (P04062 40-536 R534H): T1 sequence (P04062 40-536) with R495H
Experimental: (§1) All assays were performed in duplicate sets, each with 3 technical replicates at each inhibitor concentration. DMSO concentration was kept at 0.5 %–1 % (v/v) in all assays during incubation with compounds. In vitro apparent IC50 values were calculated by fitting data with [inhibitor] vs. response‐various slope (four parameters) function using Graphpad Prism 7.0 software. Average values and standard deviations were calculated from the two sets.

[2] = target: T3, human GBA2 (from lysates of GBA2 overexpressed cells) (Homo sapiens, UniProt Q9HCG7); test: In vitro apparent IC50, fluorogenic substrate assay on GBA2 in lysates of overexpressing cells
T3 construct: expressed in transfected cells; host or cells: HEK293T
T3 sequence (Q9HCG7 1-927): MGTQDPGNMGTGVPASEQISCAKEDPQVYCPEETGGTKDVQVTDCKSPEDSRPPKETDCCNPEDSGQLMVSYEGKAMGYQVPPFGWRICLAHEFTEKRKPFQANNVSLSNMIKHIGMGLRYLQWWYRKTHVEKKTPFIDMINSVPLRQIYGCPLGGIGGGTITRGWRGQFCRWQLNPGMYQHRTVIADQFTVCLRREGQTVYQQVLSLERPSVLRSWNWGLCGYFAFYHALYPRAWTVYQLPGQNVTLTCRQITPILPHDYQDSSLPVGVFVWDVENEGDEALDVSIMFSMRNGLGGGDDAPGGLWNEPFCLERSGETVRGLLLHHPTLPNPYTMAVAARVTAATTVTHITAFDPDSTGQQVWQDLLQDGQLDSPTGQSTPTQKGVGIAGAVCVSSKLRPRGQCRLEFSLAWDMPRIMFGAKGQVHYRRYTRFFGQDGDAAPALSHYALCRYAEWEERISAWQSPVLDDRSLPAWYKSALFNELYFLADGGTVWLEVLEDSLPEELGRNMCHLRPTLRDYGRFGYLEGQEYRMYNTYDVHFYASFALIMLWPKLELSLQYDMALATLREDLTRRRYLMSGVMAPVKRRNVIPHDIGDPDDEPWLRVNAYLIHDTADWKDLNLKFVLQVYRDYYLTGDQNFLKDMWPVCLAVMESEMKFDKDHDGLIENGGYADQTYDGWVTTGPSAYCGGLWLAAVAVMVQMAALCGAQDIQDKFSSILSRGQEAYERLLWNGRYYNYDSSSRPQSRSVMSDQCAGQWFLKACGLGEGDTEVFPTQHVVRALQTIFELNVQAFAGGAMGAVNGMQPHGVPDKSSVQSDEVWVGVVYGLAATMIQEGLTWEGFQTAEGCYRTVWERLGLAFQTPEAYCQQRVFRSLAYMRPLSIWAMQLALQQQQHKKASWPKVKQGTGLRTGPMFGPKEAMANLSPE
Experimental: as §1

[3] = target: T4, recombinant human GAA (rhGAA, Myozyme) (Homo sapiens, UniProt P10253); test: In vitro apparent IC50, fluorogenic substrate assay on rhGAA
T4 construct: purchased Sanofi Genzyme (Cambridge, MA, USA)
Experimental: as §1

**Q.** `CCCCCCCCN1[C@@H]2[C@H](Cn3cc(CNC(=O)CCCCC[N+]4=C(/C=C/C=C/C=C5/N(C)c6ccccc6C5(C)C)C(C)(C)c5ccccc54)nn3)[C@@H](O)[C@H](O)[C@@H](O)[C@@H]21` (some centres unmarked) [ABP 6] was tested. Which “gel-detection limit (ABP concentration)” value (rhGBA) did it give?
**A.** 1 nM

**Q.** And the IC50 ([1]; 3 hr pre-incubation, read-out: apparent IC50 value, GBA)?
**A.** 53 nM

**Q.** What about the IC50 ([1]; apparent IC50, 3 h pre-incubation, 4-methylumbelliferyl-β-glucoside substrate, ± SD from technical duplicates, read-out: In vitro rhGBA IC50) of the same molecule?
**A.** 53.1 ± 2.65 nM

**Q.** And the IC50 [2]?
**A.** > 100000 nM

**Q.** And the IC50 [3]?
**A.** > 100000 nM
